In patent US10730858B2, “Lactam, cyclic urea and carbamate, and triazolone derivatives as potent and selective rock inhibitors” (BRISTOL-MYERS SQUIBB COMPANY, priority 2016, dated 2020) one finds IC50 data, which are given here for 30 compounds.

Broadly, the IC50 is the midpoint of a concentration-inhibition curve. A higher IC50 goes with weaker potency in that assay.

The assay addresses ROCK2 (Homo sapiens, UniProt O75116). Nature of the assay: ROCK2 assay (Caliper LABCHIP peptide phosphorylation, kinase inhibition). The assay is classed as biochemical. The note with it: 5 μM ATP, 1.5 μM peptide substrate. As for the experimental part:
The effectiveness of compounds of the present invention as ROCK inhibitors can be determined in a 30 μL assay containing 20 mM HEPES, pH 7.5, 20 mM MgCl2, 0.015% Brij-35, 4 mM DTT, 5 μM ATP and 1.5 μM peptide substrate (FITC-AHA-AKRRRLSSLRA-OH) (SEQ ID NO. 1). Compounds were dissolved in DMSO so that the final concentration of DMSO was <2%, and the reaction was initiated with Rho kinase variants. After incubation, the reaction was terminated by the addition of EDTA and the phosphorylated and non-phosphorylated peptides separated using a LABCHIP® 3000 Reader (Caliper Life Sciences). […] Compounds were tested in dose-response format, and the inhibition of kinase activity was calculated at each concentration of compound. The inhibition data were fit using a curve-fitting program to determine the IC50; i.e., the concentration of compound required to inhibit 50% of kinase activity.
Representative Examples were tested in the ROCK2 assay described above and found having ROCK2 inhibitory activity. The ranges of the ROCK2 IC50 values are as follows: ROCK2 IC50: ++++ (<10 nM) +++ (10-100 nM) ++ (100-500 nM) + (500-2000 nM)

ROCK2, sequence (O75116 whole entry, species assumed): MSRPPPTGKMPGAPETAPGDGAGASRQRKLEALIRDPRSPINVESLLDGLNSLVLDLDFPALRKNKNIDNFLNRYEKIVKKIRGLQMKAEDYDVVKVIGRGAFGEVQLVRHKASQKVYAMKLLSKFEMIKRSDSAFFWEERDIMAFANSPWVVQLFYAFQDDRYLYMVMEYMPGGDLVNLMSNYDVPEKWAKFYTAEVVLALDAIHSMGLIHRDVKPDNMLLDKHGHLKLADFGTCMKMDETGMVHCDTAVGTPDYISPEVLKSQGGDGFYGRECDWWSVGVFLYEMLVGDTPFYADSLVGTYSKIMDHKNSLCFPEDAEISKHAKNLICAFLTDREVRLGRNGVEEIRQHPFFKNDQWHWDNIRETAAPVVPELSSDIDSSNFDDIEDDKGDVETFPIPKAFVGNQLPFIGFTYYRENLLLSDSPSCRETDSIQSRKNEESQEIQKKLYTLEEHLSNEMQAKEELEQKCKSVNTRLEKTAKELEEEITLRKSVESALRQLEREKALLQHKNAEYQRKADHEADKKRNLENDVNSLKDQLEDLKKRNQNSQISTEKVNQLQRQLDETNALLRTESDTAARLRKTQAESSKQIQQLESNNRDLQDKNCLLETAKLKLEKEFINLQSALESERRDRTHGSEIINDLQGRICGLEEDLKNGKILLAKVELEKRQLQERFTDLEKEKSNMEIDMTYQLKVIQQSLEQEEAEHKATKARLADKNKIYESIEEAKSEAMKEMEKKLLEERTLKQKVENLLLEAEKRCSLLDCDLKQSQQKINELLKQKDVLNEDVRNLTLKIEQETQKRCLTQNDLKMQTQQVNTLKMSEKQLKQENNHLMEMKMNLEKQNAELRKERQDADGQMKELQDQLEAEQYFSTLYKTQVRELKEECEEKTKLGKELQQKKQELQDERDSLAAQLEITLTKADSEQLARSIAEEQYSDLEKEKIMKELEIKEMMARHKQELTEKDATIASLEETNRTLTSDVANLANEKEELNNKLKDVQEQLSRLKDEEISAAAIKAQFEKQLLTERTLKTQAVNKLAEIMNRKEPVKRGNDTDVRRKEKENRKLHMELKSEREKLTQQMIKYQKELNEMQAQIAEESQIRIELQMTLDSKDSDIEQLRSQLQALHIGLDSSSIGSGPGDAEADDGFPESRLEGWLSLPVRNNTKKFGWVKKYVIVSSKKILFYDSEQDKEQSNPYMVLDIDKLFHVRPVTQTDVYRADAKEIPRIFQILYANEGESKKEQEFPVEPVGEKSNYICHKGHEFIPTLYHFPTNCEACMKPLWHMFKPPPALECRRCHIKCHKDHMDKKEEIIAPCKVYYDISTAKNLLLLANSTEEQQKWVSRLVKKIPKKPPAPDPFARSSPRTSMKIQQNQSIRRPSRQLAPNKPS

The compound `O=C1C(Nc2cccc(OC(F)F)c2)CCN1c1ccc(-c2n[nH]c(=O)c3ccccc23)cc1` (racemic) [Example 30, 4-[4-(3-{[3-(difluoromethoxy)phenyl]amino}-2-oxopyrrolidin-1-yl)phenyl]-1,2-dihydrophthalazin-1-one] returned an IC50 of under 10 nM.
Compound `O=C1C(Nc2cccc(OC(F)F)c2)CCN1c1ccc(-c2c[nH]c(=O)c3ccccc23)cc1` (racemic) [Example 58, 4-[4-(3-{[3-(difluoromethoxy)phenyl]amino}-2-oxopyrrolidin-1-yl)phenyl]-1,2-dihydroisoquinolin-1-one] showed an IC50 of under 10 nM.
As to `O=C1COc2cc(NC3CCN(c4ccc(-c5n[nH]c(=O)c6ccccc56)cc4)C3=O)ccc2N1` (racemic) [Example 62, 7-({2-oxo-1-[4-(4-oxo-3,4-dihydrophthalazin-1-yl)phenyl]pyrrolidin-3-yl}amino)-3,4-dihydro-2H-1,4-benzoxazin-3-one], the IC50 is under 10 nM.
In turn, `Cc1nc2ccc(NC3CCN(c4ccc(-c5n[nH]c(=O)c6ccccc56)cc4)C3=O)cc2s1` (racemic) [Example 66, 4-(4-{3-[(2-methyl-1,3-benzothiazol-6-yl)amino]-2-oxopyrrolidin-1-yl}phenyl)-1,2-dihydrophthalazin-1-one] had an IC50 of under 10 nM.
The compound `O=C1C(Oc2cccc(OC(F)(F)F)c2)CCN1c1ccc(-c2n[nH]c(=O)c3ccccc23)cc1` (racemic) [Example 73, 4-(4-{2-oxo-3-[3-(trifluoromethoxy)phenoxy]pyrrolidin-1-yl}phenyl)-1,2-dihydrophthalazin-1-one] yielded an IC50 of under 10 nM.
The same measure for `O=C1C(Nc2cccc(OC(F)F)c2)CCN1c1ccc(-c2n[nH]c(=O)c3ccccc23)cc1` (single isomer, unassigned) [Example 55, 4-[4-(3-{[3-(difluoromethoxy)phenyl]amino}-2-oxopyrrolidin-1-yl)phenyl]-1,2-dihydrophthalazin-1-one]: 10 to 100 nM; for `O=C1C(Nc2cccc(OC(F)F)c2)CCN1c1ccc(-c2n[nH]c(=O)c3ccccc23)cc1` (single isomer, unassigned) [Example 56, 4-[4-(3-{[3-(difluoromethoxy)phenyl]amino}-2-oxopyrrolidin-1-yl)phenyl]-1,2-dihydrophthalazin-1-one]: under 10 nM; for `O=C1C(Nc2ccc3c(c2)OCCCO3)CCN1c1ccc(-c2n[nH]c(=O)c3ccccc23)cc1` (single isomer, unassigned) [Example 76, 4-(4-{3-[(3,4-dihydro-2H-1,5-benzodioxepin-7-yl)amino]-2-oxopyrrolidin-1-yl}phenyl)-1,2-dihydrophthalazin-1-one]: 10 to 100 nM.
The value for `O=C1C(Nc2ccc3c(c2)OCCCO3)CCN1c1ccc(-c2n[nH]c(=O)c3ccccc23)cc1` (single isomer, unassigned) [Example 77, 4-(4-{3-[(3,4-dihydro-2H-1,5-benzodioxepin-7-yl)amino]-2-oxopyrrolidin-1-yl}phenyl)-1,2-dihydrophthalazin-1-one] was 10 to 100 nM; that for `O=C1C(Nc2cccc(OC(F)F)c2)CCN1c1ccc(-c2c[nH]c(=O)c3ccccc23)cc1` (single isomer, unassigned) [Example 78, 4-[4-(3-{[3-(difluoromethoxy)phenyl]amino}-2-oxopyrrolidin-1-yl)phenyl]-1,2-dihydroisoquinolin-1-one] was 10 to 100 nM.
In turn, `O=C1C(Nc2cccc(OC(F)F)c2)CCN1c1ccc(-c2c[nH]c(=O)c3ccccc23)cc1` (single isomer, unassigned) [Example 79, 4-[4-(3-{[3-(difluoromethoxy)phenyl]amino}-2-oxopyrrolidin-1-yl)phenyl]-1,2-dihydroisoquinolin-1-one] returned an IC50 of under 10 nM.
As to `Cc1nc2ccc(NC3CCN(c4ccc(-c5n[nH]c(=O)c6ccccc56)cc4)C3=O)cc2s1` (single isomer, unassigned) [Example 80, 4-(4-{3-[(2-methyl-1,3-benzothiazol-6-yl)amino]-2-oxopyrrolidin-1-yl}phenyl)-1,2-dihydrophthalazin-1-one], the IC50 is under 10 nM.
The value for `Cc1nc2ccc(NC3CCN(c4ccc(-c5n[nH]c(=O)c6ccccc56)cc4)C3=O)cc2s1` (single isomer, unassigned) [Example 81, 4-(4-{3-[(2-methyl-1,3-benzothiazol-6-yl)amino]-2-oxopyrrolidin-1-yl}phenyl)-1,2-dihydrophthalazin-1-one] was 10 to 100 nM.
The same measure for `O=C1COc2cc(NC3CCN(c4ccc(-c5n[nH]c(=O)c6ccccc56)cc4)C3=O)ccc2N1` (single isomer, unassigned) [Example 82, 7-({2-oxo-1-[4-(4-oxo-3,4-dihydrophthalazin-1-yl)phenyl]pyrrolidin-3-yl}amino)-3,4-dihydro-2H-1,4-benzoxazin-3-one]: under 10 nM.
The same measure for `O=C1COc2cc(NC3CCN(c4ccc(-c5n[nH]c(=O)c6ccccc56)cc4)C3=O)ccc2N1` (single isomer, unassigned) [Example 83, 7-({2-oxo-1-[4-(4-oxo-3,4-dihydrophthalazin-1-yl)phenyl]pyrrolidin-3-yl}amino)-3,4-dihydro-2H-1,4-benzoxazin-3-one]: 10 to 100 nM.
The compound `O=C1C(Oc2cccc(OC(F)(F)F)c2)CCN1c1ccc(-c2n[nH]c(=O)c3ccccc23)cc1` (single isomer, unassigned) [Example 84, 4-(4-{2-oxo-3-[3-(trifluoromethoxy)phenoxy]pyrrolidin-1-yl}phenyl)-1,2-dihydrophthalazin-1-one] showed an IC50 of under 10 nM.
The value for `O=C1C(Oc2cccc(OC(F)(F)F)c2)CCN1c1ccc(-c2n[nH]c(=O)c3ccccc23)cc1` (single isomer, unassigned) [Example 85, 4-(4-{2-oxo-3-[3-(trifluoromethoxy)phenoxy]pyrrolidin-1-yl}phenyl)-1,2-dihydrophthalazin-1-one] was under 10 nM; that for `O=C1C(c2ccccc2)CCN1c1ccc(-c2n[nH]c(=O)c3ccccc23)cc1` (stereo not drawn) [Example 1, 4-[4-(2-oxo-3-phenylpyrrolidin-1-yl)phenyl]-1,2-dihydrophthalazin-1-one] was 100 to 500 nM.
The same measure for `O=C1N(c2ccccc2)CCN1c1ccc(-c2n[nH]c(=O)c3ccccc23)cc1` [Example 2, 4-[4-(2-oxo-3-phenylimidazolidin-1-yl)phenyl]-1,2-dihydrophthalazin-1-one]: under 10 nM.
The value for `O=C1C(C(=O)N2CCc3ccccc32)CCN1c1ccc(-c2n[nH]c(=O)c3ccccc23)cc1` (stereo not drawn) [Example 3, 4-{4-[3-(2,3-dihydro-1H-indole-1-carbonyl)-2-oxopyrrolidin-1-yl]phenyl}-1,2-dihydrophthalazin-1-one] was 500 to 2000 nM.
`O=C1CC(c2ccccc2)CN1c1ccc(-c2n[nH]c(=O)c3ccccc23)cc1` (stereo not drawn) [Example 4, 4-[4-(2-oxo-4-phenylpyrrolidin-1-yl)phenyl]-1,2-dihydrophthalazin-1-one] had an IC50 of 100 to 500 nM.
The same measure for `O=C(C1CCN(c2ccc(-c3n[nH]c(=O)c4ccccc34)cc2)C1=O)N1Cc2ccccc2C1` (stereo not drawn) [Example 5, 4{-4-[3-(2,3-dihydro-1H-isoindole-2-carbonyl)-2-oxopyrrolidin-1-yl]phenyl}-1,2-dihydrophthalazin-1-one]: 500 to 2000 nM.
The same measure for `O=C(Nc1ccccc1)C1CCN(c2ccc(-c3n[nH]c(=O)c4ccccc34)cc2)C1=O` (stereo not drawn) [Example 6, 2-oxo-1-[4-(4-oxo-3,4-dihydrophthalazin-1-yl)phenyl]-N-phenylpyrrolidine-3-carboxamide]: 100 to 500 nM; for `O=C(NCc1ccccc1)C1CCN(c2ccc(-c3n[nH]c(=O)c4ccccc34)cc2)C1=O` (stereo not drawn) [Example 7, N-benzyl-2-oxo-1-[4-(4-oxo-3,4-dihydrophthalazin-1-yl)phenyl]pyrrolidine-3-carboxamide]: 100 to 500 nM; for `O=C1C(c2ccc(-c3n[nH]c(=O)c4ccccc34)cc2)CCN1Cc1ccccc1` (stereo not drawn) [Example 8, 4-[4-(1-benzyl-2-oxopyrrolidin-3-yl)phenyl]-1,2-dihydrophthalazin-1-one]: 500 to 2000 nM.
`O=C1C(c2ccc(-c3n[nH]c(=O)c4ccccc34)cc2)CCN1c1ccccc1` (stereo not drawn) [Example 9, 4-[4-(2-oxo-1-phenylpyrrolidin-3-yl)phenyl]-1,2-dihydrophthalazin-1-one]: the IC50 fell in the range of 100 to 500 nM.
The value for `O=C1N(Cc2ccccc2)CCN1c1ccc(-c2n[nH]c(=O)c3ccccc23)cc1` [Example 10, 4-[4-(3-benzyl-2-oxoimidazolidin-1-yl)phenyl]-1,2-dihydrophthalazin-1-one] was 10 to 100 nM; that for `O=C1N(c2ccc(-c3n[nH]c(=O)c4ccccc34)cc2)CCN1c1cccnc1` [Example 11, 4-{4-[2-oxo-3-(pyridin-3-yl)imidazolidin-1-yl]phenyl}-1,2-dihydrophthalazin-1-one] was 10 to 100 nM.
The same measure for `O=C1N(c2ccc(-c3n[nH]c(=O)c4ccccc34)cc2)CCN1c1ccccn1` [Example 12, 4-{4-[2-oxo-3-(pyridin-2-yl)imidazolidin-1-yl]phenyl}-1,2-dihydrophthalazin-1-one]: 10 to 100 nM; for `O=C1OC(Cc2ccccc2)CN1c1ccc(-c2n[nH]c(=O)c3ccccc23)cc1` (stereo not drawn) [Example 13, 4-[4-(5-benzyl-2-oxo-1,3-oxazolidin-3-yl)phenyl]-1,2-dihydrophthalazin-1-one]: 10 to 100 nM.
